{"source": "patent US20250230193A1", "about": "“CYCLIC COMPOUND HAVING SELECTIVE KRAS INHIBITORY EFFECT ON HRAS AND NRAS” (CHUGAI SEIYAKU KABUSHIKI KAISHA, priority 2022, published 2025)", "key": {"[1]": {"target": "GDP-bound NRAS wild-type protein (Homo sapiens, UniProt P01111)", "sequence (P01111 whole entry)": "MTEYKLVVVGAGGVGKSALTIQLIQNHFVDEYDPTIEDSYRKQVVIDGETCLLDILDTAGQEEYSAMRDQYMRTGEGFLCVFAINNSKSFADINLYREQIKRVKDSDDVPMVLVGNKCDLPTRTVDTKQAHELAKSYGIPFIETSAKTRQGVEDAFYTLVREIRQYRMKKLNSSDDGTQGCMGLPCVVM", "assay": "Binding to NRAS by surface plasmon resonance (SPR), Single Cycle Kinetics"}, "[2]": {"target": "GDP-bound HRAS wild-type protein (Homo sapiens, UniProt P01112)", "sequence (P01112 whole entry)": "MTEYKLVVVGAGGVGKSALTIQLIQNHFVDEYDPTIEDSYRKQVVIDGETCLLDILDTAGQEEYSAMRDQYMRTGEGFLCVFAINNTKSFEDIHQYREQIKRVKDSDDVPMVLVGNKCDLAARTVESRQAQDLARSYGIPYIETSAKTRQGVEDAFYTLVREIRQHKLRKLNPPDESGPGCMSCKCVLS", "assay": "Binding to HRAS by surface plasmon resonance (SPR), Single Cycle Kinetics"}, "[3]": {"details": "KD ratio NRAS/KRAS, class symbols"}, "[4]": {"details": "KD ratio HRAS/KRAS, class symbols"}}, "note": "Where a SMILES comes first, the peptide text is derived from it. Bridges are numbered along the chain shown (N, C = ends). [ ]: non-standard residue; d: D form. The star is where a group is joined. hPhe(3,5-F2-4-CF3) = N[C@@H](CCc1cc(F)c(C(F)(F)F)c(F)c1)C(=O)O; hPhe(3-Cl-4-CF3) = N[C@@H](CCc1ccc(C(F)(F)F)c(Cl)c1)C(=O)O; NPrPhe(4-CF3) = CCCN[C@@H](Cc1ccc(C(F)(F)F)cc1)C(=O)O; NMeGly(cPent) = CN[C@H](C(=O)O)C1CCCC1; Ac4c(3,3-F2) = NC1(C(=O)O)CC(F)(F)C1; Hyp = O=C(O)[C@@H]1C[C@@H](O)CN1; NMeD = CN[C@@H](CC(=O)O)C(=O)O; NMeL = CN[C@@H](CC(C)C)C(=O)O; Morpholide = C1CN(*)CCO1; Aze = O=C(O)[C@@H]1CCN1; Ac4c = NC1(C(=O)O)CCC1; NEtG = CCNCC(=O)O; Sar = CNCC(=O)O", "data": [{"smiles": "CCCC[C@H]1C(=O)N[C@@H]([C@@H](C)CC)C(=O)N(C)CC(=O)N(C)[C@H]2C/C=C\\CCN(C2=O)[C@@H](Cc2ccc(C(F)(F)F)cc2)C(=O)N(C)CC(=O)N[C@@H](CCc2ccc(C(F)(F)F)c(OC)c2)C(=O)N2C[C@H](OCC)C[C@H]2C(=O)NC2(CCC2)C(=O)N(C)[C@@H](C2CCCC2)C(=O)N(C)[C@H](C(=O)N(C)CC)CC(=O)N1C", "note": "[PP2840]", "values": [{"measurement": "NRAS/KRAS (ratio of KD value with respect to GDP-bound NRAS wild-type protein to KD value with respect to KRAS)", "setting": "[1]; [3]", "value": "A (a compound having 10 or more and less than 20 is denoted as A)"}, {"measurement": "HRAS/KRAS (ratio of KD value with respect to GDP-bound HRAS wild-type protein to KD value with respect to KRAS)", "setting": "[2]; [4]", "value": "A (a compound having 10 or more and less than 20 is denoted as A)"}]}, {"smiles": "CCC(CC)[C@H]1C(=O)N(C)[C@H](C(=O)N(C)C)CC(=O)N(C)[C@@H](COC)C(=O)N[C@@H]([C@@H](C)CC)C(=O)N(C)CC(=O)N(C)[C@H]2C/C=C\\CCN(C2=O)[C@@H](Cc2ccc(C(F)F)cc2)C(=O)N(C)CC(=O)N[C@@H](CCc2ccc(Cl)c(Cl)c2)C(=O)N2C[C@H](OC3CCCC3)C[C@H]2C(=O)NC2(CC(C)(C)C2)C(=O)N1C", "note": "[PP2649]", "values": [{"measurement": "NRAS/KRAS (ratio of KD value with respect to GDP-bound NRAS wild-type protein to KD value with respect to KRAS)", "setting": "[1]; [3]", "value": "AA (a compound having 20 or more is denoted as AA)"}, {"measurement": "HRAS/KRAS (ratio of KD value with respect to GDP-bound HRAS wild-type protein to KD value with respect to KRAS)", "setting": "[2]; [4]", "value": "A (a compound having 10 or more and less than 20 is denoted as A)"}]}, {"smiles": "CCCN1C(=O)CN(C)C(=O)CNC(=O)[C@H]([C@@H](C)CC)NC(=O)[C@H](CC(C)C)N(C)C(=O)C[C@@H](C(=O)N(C)C)NC(=O)[C@H](C2CCCC2)N(C)C(=O)C2(CCC2)NC(=O)[C@@H]2C[C@@H](OCC)CN2C(=O)[C@H](CCc2ccc(C(F)(F)F)c(Cl)c2)NC(=O)CN(C)C(=O)[C@@H]1Cc1ccc(C(F)(F)F)cc1", "note": "[PP0366] ([NMeL]IG[Sar][NPrPhe(4-CF3)][Sar][hPhe(3-Cl-4-CF3)][Hyp](Et)[Ac4c][NMeGly(cPent)]D-NMe2; lactam N-11)", "values": [{"measurement": "NRAS/KRAS (ratio of KD for GDP-bound NRAS wild-type to KD for KRAS)", "setting": "[1]; KD ratio NRAS/KRAS, SPR", "value": "B (a compound having 3 or more and less than 10 is denoted as B)"}, {"measurement": "HRAS/KRAS (ratio of KD for GDP-bound HRAS wild-type to KD for KRAS)", "setting": "[2]; KD ratio HRAS/KRAS, SPR", "value": "B (a compound having 3 or more and less than 10 is denoted as B)"}]}, {"smiles": "CCOC[C@H]1C(=O)N[C@@H]([C@@H](C)CC)C(=O)N(C)CC(=O)N(C)[C@H]2C/C=C\\CCN(C2=O)[C@@H](CC2CCC(F)(F)CC2)C(=O)N(C)CC(=O)N[C@@H](CCc2ccc(C(F)(F)F)c(OC)c2)C(=O)N2C[C@H](OCC)C[C@H]2C(=O)N(C)C2(CCC2)C(=O)N(C)[C@@H](C(CC)CC)C(=O)N(C)[C@H](C(=O)N(C)C)CC(=O)N1C", "note": "[PP2347]", "values": [{"measurement": "NRAS/KRAS (ratio of KD value with respect to NRAS to KD value with respect to KRAS)", "setting": "[1]; SPR, GDP-bound NRAS wild-type vs GDP-bound KRAS wild-type", "value": "A (a compound having 10 or more and less than 20 is denoted as A)"}, {"measurement": "HRAS/KRAS (ratio of KD value with respect to HRAS to KD value with respect to KRAS)", "setting": "[2]; SPR, GDP-bound HRAS wild-type vs GDP-bound KRAS wild-type", "value": "A (a compound having 10 or more and less than 20 is denoted as A)"}]}, {"smiles": "CCCN1C(=O)CN(C)C(=O)CN(CC)C(=O)[C@H]([C@@H](C)CC)NC(=O)[C@H](CC(C)C)N(C)C(=O)C[C@@H](C(=O)N(C)C)N(C)C(=O)[C@H](C2CCCC2)N(C)C(=O)C2(CCC2)NC(=O)[C@@H]2CCCN2C(=O)[C@H](CCc2ccc(C(F)(F)F)c(Cl)c2)NC(=O)CN(C)C(=O)[C@@H]1Cc1ccc(C(F)(F)F)cc1", "note": "[PP0424] ([NMeL]I[NEtG][Sar][NPrPhe(4-CF3)][Sar][hPhe(3-Cl-4-CF3)]P[Ac4c][NMeGly(cPent)][NMeD]-NMe2; lactam N-11)", "values": [{"measurement": "NRAS/KRAS (ratio of KD value with respect to GDP-bound NRAS wild-type protein to KD value with respect to KRAS)", "setting": "[1]; KD ratio NRAS/KRAS, SPR", "value": "B (a compound having 3 or more and less than 10 is denoted as B)"}, {"measurement": "HRAS/KRAS (ratio of KD value with respect to GDP-bound HRAS wild-type protein to KD value with respect to KRAS)", "setting": "[2]; KD ratio HRAS/KRAS, SPR", "value": "C (A compound having a KD ratio of 0.1 or more and less than 3 is denoted as C)"}]}, {"smiles": "C#CC[C@H]1C(=O)N[C@@H]([C@@H](C)CC)C(=O)N(C)CC(=O)N(C)[C@H]2C/C=C\\CCN(C2=O)[C@@H](Cc2ccc(C(F)(F)F)cc2)C(=O)N(C)CC(=O)N[C@@H](CCc2ccc(Cl)c(Cl)c2)C(=O)N2C[C@H](OCC)C[C@H]2C(=O)NC2(CC(C)(C)C2)C(=O)N(C)[C@@H](C2CCCC2)C(=O)N(C)[C@H](C(=O)N(C)CC)CC(=O)N1C", "note": "[PP2843]", "values": [{"measurement": "NRAS/KRAS (ratio of KD value with respect to GDP-bound NRAS wild-type protein to KD value with respect to KRAS)", "setting": "[1]; [3]", "value": "A (a compound having 10 or more and less than 20 is denoted as A)"}, {"measurement": "HRAS/KRAS (ratio of KD value with respect to GDP-bound HRAS wild-type protein to KD value with respect to KRAS)", "setting": "[2]; [4]", "value": "A (a compound having 10 or more and less than 20 is denoted as A)"}]}, {"smiles": "CCCN1C(=O)CN(C)C(=O)[C@@H]2CCN2C(=O)[C@H]([C@@H](C)CC)NC(=O)[C@H](CC(C)C)N(C)C(=O)C[C@@H](C(=O)N2CCOCC2)N(C)C(=O)[C@H](C2CCCC2)N(C)C(=O)C2(CC(F)(F)C2)NC(=O)[C@@H]2CCCN2C(=O)[C@H](CCc2cc(F)c(C(F)(F)F)c(F)c2)NC(=O)CN(C)C(=O)[C@@H]1Cc1ccc(C(F)(F)F)cc1", "note": "[PP0783] ([NMeL]I[Aze][Sar][NPrPhe(4-CF3)][Sar][hPhe(3,5-F2-4-CF3)]P[Ac4c(3,3-F2)][NMeGly(cPent)][NMeD]-Morpholide; lactam N-11)", "values": [{"measurement": "NRAS/KRAS (ratio of KD value with respect to GDP-bound NRAS wild-type protein to KD value with respect to KRAS)", "setting": "[1]; KD ratio NRAS/KRAS, SPR", "value": "B (a compound having 3 or more and less than 10 is denoted as B)"}, {"measurement": "HRAS/KRAS (ratio of KD value with respect to GDP-bound HRAS wild-type protein to KD value with respect to KRAS)", "setting": "[2]; KD ratio HRAS/KRAS, SPR", "value": "B (a compound having 3 or more and less than 10 is denoted as B)"}]}]}
